The test has as its target T1, prostaglandin endoperoxide synthase-2 (PGHS-2) (Mus musculus, UniProt Q05769).
T1 sequence (Q05769 18-604): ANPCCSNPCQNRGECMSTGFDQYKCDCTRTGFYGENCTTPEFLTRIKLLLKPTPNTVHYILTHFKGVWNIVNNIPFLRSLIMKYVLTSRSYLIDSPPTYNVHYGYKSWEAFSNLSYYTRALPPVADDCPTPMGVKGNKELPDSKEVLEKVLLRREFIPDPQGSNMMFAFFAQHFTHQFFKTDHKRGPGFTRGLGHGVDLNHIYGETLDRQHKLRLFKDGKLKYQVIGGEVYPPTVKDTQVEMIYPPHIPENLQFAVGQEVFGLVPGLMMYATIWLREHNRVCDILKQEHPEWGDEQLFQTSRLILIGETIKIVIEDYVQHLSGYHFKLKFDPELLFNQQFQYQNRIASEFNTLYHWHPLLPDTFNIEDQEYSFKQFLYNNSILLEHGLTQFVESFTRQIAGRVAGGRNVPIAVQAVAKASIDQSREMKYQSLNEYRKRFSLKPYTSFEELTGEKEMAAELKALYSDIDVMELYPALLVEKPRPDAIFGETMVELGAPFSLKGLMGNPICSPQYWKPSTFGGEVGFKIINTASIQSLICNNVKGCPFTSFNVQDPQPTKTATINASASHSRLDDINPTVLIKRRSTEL
The experiment in a line: oxygen uptake assay of purified enzyme. Format: biochemical.

Results on one compound are retold here after article PMC2797370 (2009).

Molecules are shown by their SMILES.

Broadly, the IC50 is the concentration at which inhibition is half-maximal.

The compound `CCCCC/C=C\C/C=C\C/C=C\C/C=C\CCCC(=O)Nc1cccc(O)c1` [3-HPAA, N-(3-Hydroxyphenyl)eicosa-5,8,11,14-tetraenamide] gave a half-inhibitory concentration (IC50) of 1600 nM.
